# Data: US20090324743A1, “PULMONARY DRUG DELIVERY” (UNIVERSITY OF STRATHCLYDE, priority 2008, published 2009)
# Key:
# [1] = system: B16-F0 cells; experiment: Tumour development / liver metastases, organ weight and histology on day 21; format: in vivo, BALB/c male mice
# Method: (§1) A number of studies have been completed where mice were treated on day 7 (post-tumour induction) with different cisplatin formulations by inhalation and the effect on subsequent tumour burdens, based on organ weight or direct assessment of the number and size distribution of tumours, was assessed 14 days later. The lungs, liver and spleen were cut into longitudinal slices and the kidney bisected and placed in a tissue cassette. After routine processing in paraffin wax, […] sections were mounted on a glass slide, dewaxed in 100% xylene and serially rehydrated in graded ethanol to water. Sections were then stained with haematoxylin and eosin and examined by light microscopy. For each organ the number and size of tiny (unmeasurable), small, medium and large tumours was determined counted in one H&E section. The size of the largest tumour deposit was also noted. The dimensions used to characterise tumours was small (0.5 to 1.4 mm), medium (1.5 to 2.9 mm), or large (>3 mm largest dimension). The percentage of tiny tumours was calculated using the total number of tumours present in the section.
# [2] = system: B16-F0 cells; experiment: as above; format: in vivo, C57BL/6 male mice; settings: Table 12 C57BL/6 male
# Method: as §1
# [3] = system: Leishmania donovani; experiment: In vivo efficacy study using Leishmania donovani; design: species or system BALB/c mice; settings: iv 0.2 ml (0.5 mg/ml cisplatin) on day 7 post-infection; burdens seven days later
# Method: BALB/c mice were infected by intravenous injection (tail vein, no anaesthetic) with 1-2×10^7 L. donovani amastigotes (Carter et al., 1988). The day of parasite administration to the mice was designated day 0 of the experiment. On day 7 post-infection mice were treated by intravenous injection with 0.2 ml of the appropriate formulation by intravenous injection, without anaesthetic (n=4/treatment). On day 14 impression smears of the spleen and liver, and a smear of bone marrow, were made on to an individual glass microscope slide for each mouse at sacrifice. The slides were fixed in methanol for 30 secs, stained in 10% aqueous Giemsa stain (BDH, VWR International Ltd., Poole, UK) for 20 minutes, and then allowed to air dry. The number of parasites present/1000 host nuclei for the spleen, liver and bone marrow for each sample was determined at ×1000 magnification. The LDU was calculated by multiplying the number of parasites present/1000 host nuclei by the organ weight (gms) for the spleen and liver.
# [4] = system: B16 F0 cells; experiment: In vivo lung cancer efficacy study, organ weights; design: species or system BALB/c mice; settings: sacrificed day 14; for Lung weight: Table 9
# Method: BALB/c mice (n=8/treatment) were injected intravenously on day 0 with 1-5×10^5 B16 F0 cells which form metastatic lung and liver tumours in mice (Nakurmura et al., 2002). On day 7 mice were treated either by intravenous injection of 0.2 ml of the appropriate drug formulation or PBS pH 7.4/saline (controls) or by inhalation with the appropriate drug formulation or saline using the Buxco® nebulisation system. 0.5 ml of the appropriate formulation or saline was added to the nebuliser which was attached to a Volumatic™ Spacer (Allen and Hanbury, Uxbridge, Middlesex). After 1.5 mins of nebulisation the nebuliser was switched off and the mice were exposed to the resulting aerosol for a further 5 minutes. Mice were sacrificed on day 14, body weight and the weight of the spleen, liver, lungs and kidney assessed. Lung weight was taken as an indirect measure of tumour burden. In some cases mice were dosed on days 4, 7, 9 and 11. Tumours were easily visible as black areas on the surface of the lungs and liver.
# [5] = after intravenous administration; cited from earlier work
# [6] = room temperature; cited from earlier work
# [7] = Cisplatin levels in samples from mice treated by inhalation or intravenous injection (HPLC); format: in vivo, BALB/c mice; settings: for Mean cisplatin concentration, Kidney / Mean cisplatin concentration, Liver / Mean cisplatin concentration, Lung lavages / Mean cisplatin concentration, Lungs / Mean cisplatin concentration, Serum / Mean cisplatin concentration, Spleen: 5 minutes after dosing
# Method: Mice were treated with the appropriate drug formulation either by intravenous injection of 0.2 ml of the appropriate drug formulation or PBS pH 7.4/saline (controls) or by inhalation with the appropriate drug formulation or saline (controls) using the Buxco® nebulisation system. 0.5 ml of the appropriate formulation or saline was added to the nebuliser which was attached to a Volumatic™ Spacer (Allen and Hanbury, Uxbridge, Middlesex). After 1.5 mins of nebulisation, the nebuliser was switched off, and the mice were exposed to the resulting aerosol for a further 5 minutes. […] Blood was taken by cardiac puncture and allowed to clot by storing for up to 12 hours at 4° C. Serum was separated from clotted blood sample by centrifuging at 13,000 rpm at 4° C., and transferred to a clean eppendorf tube. The lungs of the mouse were inflated by introducing two samples of 0.8 ml PBS pH 7.4 via the trachea and the resulting lung lavages were transferred to a clean eppendorf tube. Various organs were removed from the mouse and stored in 1.5 ml microfuge tubes. All the samples were stored at −20° C. until cisplatin levels within the samples could be determined using an HPLC assay.
# [8] = system: B16 F0 cells; experiment: In vivo lung cancer efficacy study, organ weights; settings: Table 8; BALB/c female mice; inhalation day 7; Free drug (1 mg/ml), Processed cisplatin-NIV (0.5 mg/ml); sacrificed day 23
# [9] = Table 10, inhalation day 7, cisplatin solution 1 mg/ml, cisplatin-NIV 0.5 mg/ml
# [10] = Table 11, inhalation day 7, cisplatin solution 1 mg/ml, cisplatin-NIV 0.1 mg/ml
# [11] = Table 11, solution 1 mg/ml, NIV 0.1 mg/ml
# [12] = Table 11, solution 1 mg/ml, NIV 0.1 mg/ml, large >3 mm
# [13] = Table 11, solution 1 mg/ml, NIV 0.1 mg/ml, medium 1.5 to 2.9 mm
# [14] = Table 11, solution 1 mg/ml, NIV 0.1 mg/ml, small 0.5 to 1.4 mm
# [15] = Table 12 BALB/c male, inhalation day 7, cisplatin solution 1 mg/ml, cisplatin-NIV 0.5 mg/ml
# [16] = Table 12 BALB/c male, solution 1 mg/ml, NIV 0.5 mg/ml
# [17] = inhalation day 7, cisplatin solution 1 mg/ml, cisplatin-NIV 0.5 mg/ml
# [18] = solution 1 mg/ml, NIV 0.5 mg/ml
# [19] = Table 5, 0.5 mg/ml inhalation 6.5 mins on day 7
# [20] = Table 5, 4.44 mg/kg iv (0.2 ml of 0.5 mg/ml) on day 7
# [21] = Table 6 Expt 1, inhalation on days 4, 7, 9 and 11, cisplatin solution 0.5 mg/ml, processed cisplatin-NIV as prepared
# [22] = Table 6 Expt 2, inhalation day 7 only, 0.1 mg/ml
# [23] = Table 3, inhalation 6.5 minutes, 0.5 ml of 0.5 mg/ml
# [24] = Table 4, inhalation 6.5 minutes, 0.5 ml of 0.5 mg/ml
compound,measurement,setting,value
"[NH2][Pt]([NH2])([Cl])[Cl] [Cisplatin solution, cisplatin]","% animals with visible metastases, Liver",[1]; [9],(100%)
same,"% animals with visible metastases, Lung",[1]; [9],(100%)
same,"Mean weight, Liver",[1]; [9],1.53 ± 0.03 g
same,"Mean weight, Lung",[1]; [9],0.20 ± 0.01 g
same,Liver Weight,[1]; [10],1.65 ± 0.10
same,"Lungs Histology, percentage of tiny tumours",[1]; [10],Tiny 60%
same,Lungs Weight,[1]; [10],0.22 ± 0.01
same,"Liver Histology, D largest tumour mass, breadth",[1]; [11],1.6 ± 0.43
same,"Liver Histology, D largest tumour mass, length",[1]; [11],D 2.38
same,"Lungs Histology, D largest tumour mass, breadth",[1]; [11],1.19 ± 0.23
same,"Lungs Histology, D largest tumour mass, length",[1]; [11],D 1.4 ± 0.37 ×
same,"Liver Histology, number of large tumours (L)",[1]; [12],L 3.8 ± 2.15
same,"Lungs Histology, number of large tumours (L)",[1]; [12],L 0.40 ± 0.24
same,"Liver Histology, number of medium tumours (M)",[1]; [13],M 2.2 ± 1.56
same,"Lungs Histology, number of medium tumours (M)",[1]; [13],M 1.0 ± 0.6
same,"Liver Histology, number of small tumours (S)",[1]; [14],S 0.4 ± 0.24
same,"Lungs Histology, number of small tumours (S)",[1]; [14],S 2.5 ± 0.43
same,Liver Weight,[1]; [15],1.74 ± 0.05
same,Lungs Weight,[1]; [15],0.22 ± 0.02
same,"Liver Tumours, D largest tumour mass, breadth",[1]; [16],2.3 ± 0.70
same,"Liver Tumours, D largest tumour mass, length",[1]; [16],D 2.63 ± 0.71 ×
same,"Liver Tumours, number large (L)",[1]; [16],L 2.5 ± 1.50
same,"Liver Tumours, number medium (M)",[1]; [16],M 2.0 ± 1.41
same,"Liver Tumours, number small (S)",[1]; [16],S 3.5 ± 1.32
same,"Liver Tumours, percentage of tiny tumours",[1]; [16],Tiny 0%
same,"Lungs Tumours, D largest tumour mass, breadth",[1]; [16],1.08 ± 0.15
same,"Lungs Tumours, D largest tumour mass, length",[1]; [16],D 1.45 ± 0.13 ×
same,"Lungs Tumours, number large (L)",[1]; [16],L 0
same,"Lungs Tumours, number medium (M)",[1]; [16],M 0.5 ± 0.29
same,"Lungs Tumours, number small (S)",[1]; [16],S 7.75 ± 1.11
same,"Lungs Tumours, percentage of tiny tumours",[1]; [16],Tiny 60%
same,Liver Weight,[2]; [17],1.76 ± 0.16
same,Lungs Weight,[2]; [17],0.25 ± 0.03
same,"Liver Tumours, D largest tumour mass, breadth",[2]; [18],4.44 ± 0.56
same,"Liver Tumours, D largest tumour mass, length",[2]; [18],D 5.64 ± 0.88 ×
same,"Liver Tumours, number large (L)",[2]; [18],L 6.4 ± 2.95
same,"Liver Tumours, number medium (M)",[2]; [18],M 2.8 ± 1.01
same,"Liver Tumours, number small (S)",[2]; [18],S 0.20 ± 0.20
same,"Lungs Tumours, D largest tumour mass, breadth",[2]; [18],0.7 ± 0.20
same,"Lungs Tumours, D largest tumour mass, length",[2]; [18],D 1.35 ± 0.35 ×
same,"Lungs Tumours, number large (L)",[2]; [18],L 0
same,"Lungs Tumours, number medium (M)",[2]; [18],M 1.0 ± 0.6
same,"Lungs Tumours, number small (S)",[2]; [18],S 1.2 ± 0.73
same,"Lungs Tumours, percentage of tiny tumours",[2]; [18],Tiny 0%
same,Mean number of parasites ± SE (L. donovani liver parasite burdens),[3],2142 ± 249
same,"Mean organ weight, Liver",[4]; [19],1.47 ± 0.05 g
same,"Mean organ weight, Lungs",[4]; [19],0.22 ± 0.01 g
same,"Mean organ weight, Liver",[4]; [20],1.44 ± 0.16 g
same,"Mean organ weight, Lungs",[4]; [20],0.42 ± 0.03 g
same,"Mean organ weight, Liver",[4]; [21],1.19 ± 0.07 g
same,"Mean organ weight, Lungs",[4]; [21],0.21 ± 0.01 g
same,"Mean organ weight, Liver",[4]; [22],1.30 ± 0.03 g
same,"Mean organ weight, Lungs",[4]; [22],0.21 ± 0.01 g
same,Lung weight,"[4]; Female mice, inhalation day 7, 1 mg/ml",0.19 ± 0.01
same,Lung weight,"[4]; Male mice, inhalation day 7, 0.5 mg/ml",0.23 ± 0.02
same,Share of the dose that reaches the lungs,[5],0.1%
same,Maximum aqueous solubility,[6],approximately 1 mg/ml
same,Detection of cisplatin by conventional HPLC analysis,[7]; 15 minutes after dosing,not possible to detect
same,"Mean cisplatin concentration, Kidney",[7]; [23],6.81 ± 2.53 μg/ml/g tissue
same,"Mean cisplatin concentration, Liver",[7]; [23],0.037 ± 0.04 μg/ml/g tissue
same,"Mean cisplatin concentration, Lung lavages",[7]; [23],0.004 ± 0.002 µg/mL
same,"Mean cisplatin concentration, Lungs",[7]; [23],0 ± 0 μg/ml/g tissue
same,"Mean cisplatin concentration, Serum",[7]; [23],0.268 ± 0.1 µg/mL
same,"Mean cisplatin concentration, Spleen",[7]; [23],0.018 ± 0.01 μg/ml/g tissue
same,"Mean cisplatin concentration, Kidney","[7]; Table 3, iv 0.2 ml, 0.5 mg/ml",0.951 ± 0.35 μg/ml/g tissue
same,"Mean cisplatin concentration, Liver","[7]; Table 3, iv 0.2 ml, 0.5 mg/ml",0.19 ± 0.13 μg/ml/g tissue
same,"Mean cisplatin concentration, Lung lavages","[7]; Table 3, iv 0.2 ml, 0.5 mg/ml",0.13 ± 0.07 µg/mL
same,"Mean cisplatin concentration, Lungs","[7]; Table 3, iv 0.2 ml, 0.5 mg/ml",0 ± 0 μg/ml/g tissue
same,"Mean cisplatin concentration, Serum","[7]; Table 3, iv 0.2 ml, 0.5 mg/ml",0.296 ± 0.13 µg/mL
same,"Mean cisplatin concentration, Spleen","[7]; Table 3, iv 0.2 ml, 0.5 mg/ml",0.065 ± 0.02 μg/ml/g tissue
same,"Mean cisplatin concentration, Kidney",[7]; [24],0.55 ± 0.48 μg/ml/g tissue
same,"Mean cisplatin concentration, Liver",[7]; [24],0.032 ± 0.02 μg/ml/g tissue
same,"Mean cisplatin concentration, Lung lavages",[7]; [24],0.095 ± 0.06 µg/mL
same,"Mean cisplatin concentration, Lungs",[7]; [24],0.032 ± 0.15 μg/ml/g tissue
same,"Mean cisplatin concentration, Serum",[7]; [24],0 ± 0 µg/mL
same,"Mean cisplatin concentration, Spleen",[7]; [24],0.346 ± 0.19 μg/ml/g tissue
same,"Mean cisplatin concentration, Kidney","[7]; Table 4, iv 0.2 ml, 0.5 mg/ml",0.55 ± 0.48 μg/ml/g tissue
same,"Mean cisplatin concentration, Liver","[7]; Table 4, iv 0.2 ml, 0.5 mg/ml",0.032 ± 0.02 μg/ml/g tissue
same,"Mean cisplatin concentration, Lung lavages","[7]; Table 4, iv 0.2 ml, 0.5 mg/ml",0.095 ± 0.06 µg/mL
same,"Mean cisplatin concentration, Lungs","[7]; Table 4, iv 0.2 ml, 0.5 mg/ml",0.032 ± 0.015 μg/ml/g tissue
same,"Mean cisplatin concentration, Serum","[7]; Table 4, iv 0.2 ml, 0.5 mg/ml",0.207 ± 0.02 µg/mL
same,"Mean cisplatin concentration, Spleen","[7]; Table 4, iv 0.2 ml, 0.5 mg/ml",0.346 ± 0.10 μg/ml/g tissue
same,Lung weight,[8],0.33 ± 0.02
